Source: patent EP0024776A1, “4-Phenyl and 5-phenyl-1,4,5,6-tetrahydropyrimidine derivatives, pharmaceutical compositions containing said derivatives, and process for preparing said derivatives” (SYNTEX (U.S.A.) INC., priority 1979, dated 1981)

Columns and labels:
tonic extensor seizure = experiment: Anticonvulsant activity - maximal electroshock test; type: in vivo, mice; details: Mus musculus, ip, 0.25 h; i.p. fifteen minutes prior to transcorneal electroshock (50 mamp. 0.2sec); antagonism of tonic extensor seizure
Method: ANTICONVULSANT ACTIVITY - MAXIMAL ELECTROSHOCK TEST This assay was used to evaluate the anticonvulsant activity of compounds of this invention. Groups of 10 male Hilltop ICR mice were utilized for these experiments. At fifteen minutes prior to testing, drug or vehicle was administered intraperitoneally (i.p.). At the appropriate time the mice were subjected to a transcorneal electroshock generated by a stimulator (Woodbury, L.A. and Davenport, V.D.: Design and Use Of A New Electroshock Seizure Apparatus And Analysis Of Factors Altering Seizure Threshold And Pattern. Arch. Intern. Pharmacodyn. Ther. 92: 97-107,1952). The shock (50 […]) elicited three types of seizures: tonic extension, tonic flexion and clonic seizures. For the purposes of this test, the antagonism of the tonic extensor seizure was utilized as an endpoint. The quantal data accumulated from several doses of a test compound were utilized to determine an ED50 (Litchfield, J.F. and Wilcoxon, F.: A Simplified Method of Evaluating Dose-effect Experiments). J. Pharmacol. Exp. Ther. 96: 99-113, 1949).

[1] = tested on: reserpine-induced hypothermia; experiment: Reversal of reserpine-induced hypothermia in mice (potential antidepressant activity); type: in vivo; details: Mus musculus, po; minimum effective dose, p.o., statistically significant reversal of hypothermia induced by reserpine 5mg/kg i.p.; body temperature 1-4 hours post-drug; read-out: MED
Method: REVERSAL OF RESERPINE-INDUCED HYPOTHERMIA IN MICE
The assay was used to evaluate the potential antidepressant activity of compounds of this invention.
Male Swiss-Webster Institute for Cancer Research mice weighing 18-24g were utilized for these experiments. The mice, having been in holding quarters for a minimum of 5 days, were placed in plexi-glass cages 17cm by 20cm with sanicel bedding. Five of the 6 groups of 10 mice each, received reserpine, 5mg/kg, i.p. The reserpine (lOmg) was dissolved in 0.06ml glacial acetic acid and 20ml water. The sixth group was not pretreated. Two hours later the mice were dosed with either water or test compound at various doses. The group which had not received the reserpine pretreatment was also dosed with water; consequently a postive and a negative control group were present. The test compounds were administered orally (p.o.) in logarithmically spaced doses.
One hour after the oral dosing, body temperatures were taken from 8 mice from each group utilizing a Yellow Springs-Telethermometer unit. Repeated determinations of body temperature occured at 2, 3 and 4 hours post-drug.
The percent reversal of the reserpine-induced hypothermia was determined according to the formula: [formula] and subjected to an analysis of variance (X = average body temperature of mice from the group). Statistically significant reversal of the reserpine-induced hypothermia was used as a criterion for determining the minimum effective dose (MED) of the compound.

jaw opening reflex = experiment: Centrally acting skeletal muscle relaxant assay - cat linguomandibular reflex preparation; type: in vivo; details: Felis catus, iv, anesthetized cats; percent reduction of the jaw opening reflex
Method: This assay is used to assess the centrally acting skeletal muscle relaxant properties of compounds of this invention.
Mongrel cats weighing 2-Skg were anesthetized with phenobarbital sodium, 180mg/kg, i.p. The anesthetized cat was placed in a stereotaxic headholder, shaved, and the femoral artery and vein were cannulated. The cannula from the fermoral artery was connected to a Statham Model P-23 AC Transducer in order to monitor blood pressure. The femoral vein was utilized for the administration of drugs.
The cat was placed in a prone position and two electrodes, consisting of wound clips soldered to wires, were attached bilaterally to the base of the tongue. These leads were then connected to a Grass S8 stimulator. A Grass FT-03 Transducer was placed beneath the jaw. […] Signals from the transducers were recorded on a Beckman Polygraph.
The stimulator was set to deliver single pulses of 2.5msec duration. […] Once the response had ben determined to be stable, drug solution was administered i.v. in logarithmically spaced doses. […]
The percent reduction of the jaw opening reflex was utilized for determining the activity of the drug. Comparisons of the relative block of the reflex, the steepness of the dose response curve, and the cardiovascular sequel were evaluated and an ED50 determined.

male mice (ICR-Simonsen) = experiment: Acute intraperitoneal toxicity and behavior in mice (Example 14); details: for No. of Deaths: 5 mice
[2] = as above; details: mouse, in vivo, ip

For `COC(=O)NC1=NCC(c2ccc(F)cc2)CN1` (centres unmarked) [5|H|4-F|H|CH3OC(O)-, 2-methoxycarbonylamino-5-(4-fluorophenyl)-1,4,5,6-tetrahydropyrimidine], the ED50 (tonic extensor seizure) was 100 mg/kg and the minimal effective dose [1] was 0.15 mg/kg.
`COC(=O)NC1=NC(c2ccccc2C(F)(F)F)CCN1` (centres unmarked) [4|H|2-CF3|H|CH3OC(O)-, 2-methoxycarbonylamino-4-(2-trifluoromethylphenyl)-1,4,5,6-tetrahydropyrimidine] showed an ED50 (tonic extensor seizure) of 44 mg/kg and a minimal effective dose [1] of 1 mg/kg.
With `COC(=O)NC1=NCC(c2ccccc2)CN1C` (stereo not drawn) [5|H|H|CH3|CH3OC(O)-, l-Methyl-2-methoxycarbonylamino-5-phenyl-1,4,5,6-tetrahydropyrimidine] the minimal effective dose [1] was 0.04 mg/kg.
Work on `NC1=NCC(c2cccc(Br)c2)CN1` (centres unmarked) [5|H|3-Br|H|H-, 2-amino-5-(3-bromophenyl)-1,4,5,6-tetrahydropyrimidine] yielded an ED50 (tonic extensor seizure) of 47 mg/kg and a minimal effective dose [1] of 10 mg/kg.
`COC(=O)NC1=NC(c2ccccc2)CCN1` (centres unmarked) [4|H|H|H|CH3OC(O)-, 2-methoxycarbonylamino-4-phenyl-1,4,5,6-tetrahydropyrimidine] gave a minimal effective dose [1] of 2.5 mg/kg.
For `COC(=O)NC1=NCC(c2cccc(Br)c2)CN1` (centres unmarked) [5|H|3-Br|H|CH3OC(O)-, 2-methoxycarbonylamino-5-(3-bromophenyl)-1,4,5,6-tetrahydropyrimidine], the minimal effective dose [1] was 1 mg/kg.
Molecule `CC(C)OC(=O)NC1=NCC(c2ccccc2)CN1` (centres unmarked) [5|H|H|H|(CH3)2CHOC(O)-, 2-isopropoxycarbonylamino-5-phenyl-1,4,5,6-tetrahydropyrimidine] has a minimal effective dose [1] of 0.04 mg/kg.
`NC1=NC(c2ccccc2)CCN1` (centres unmarked) [4|H|H|H|H, 2-amino-4-phenyl-1,4,5,6-tetrahydropyrimidine] gave a minimal effective dose [1] of 10 mg/kg.
Work on `CCOC(=O)NC1=NCC(c2ccccc2)CN1` (centres unmarked) [5|H|H|H|CH3CH2OC(O)-, 2-ethoxycarbonylamino-5-phenyl-1,4,5,6-tetrahydropyrimidine] yielded a minimal effective dose [1] of 0.04 mg/kg.
With `COC(=O)NC1=NCC(c2cccc(OC)c2)CN1` (centres unmarked) [5|H|3-MeO|H|CH3OC(O)-, 2-methoxycarbonylamino-5-(3-methoxyphenyl)-1,4,5,6-tetrahydropyrimidine] the minimal effective dose [1] was 10 mg/kg and the ED50 (jaw opening reflex) was 7 mg/kg.
For `COC(=O)NC1=NCC(c2ccccc2)CN1.O=C(O)/C=C\C(=O)O` (centres unmarked) [2-Methoxycarbonylamino-5-phenyl-1,4,5,6-tetrahydropyrimidine, maleate], the “No. of Deaths” value (male mice (ICR-Simonsen); Dose 10 mg/kg i.p.) was 0, the “No. of Deaths” value (male mice (ICR-Simonsen); Dose 15 mg/kg i.p.) was 0 and the “No. of Deaths” value (male mice (ICR-Simonsen); Dose 20 mg/kg i.p.) was 0. The “No. of Deaths” value (male mice (ICR-Simonsen); Dose 25 mg/kg i.p.) was 0, the “No. of Deaths” value (male mice (ICR-Simonsen); Dose 27.5 mg/kg i.p.) was 4 and the “No. of Deaths” value (male mice (ICR-Simonsen); Dose 30 mg/kg i.p.) was 5. For the same molecule, the onset of effects (male mice (ICR-Simonsen); after drug administration, i.p., mice) was “less than five minutes”, the “surviving animals appeared normal” value (male mice (ICR-Simonsen); after drug, i.p., mice) was 90 to 120 min and the Behavioral effects observed (male mice (ICR-Simonsen); i.p., 10-30 mg/kg, observed for 2 hours post drug) was “decreased motor activity, ataxia exophthalmia piloerection increased induced activity, dysporea (increased depth and decreased rate of respiration), lacrimation twitching, moderate clonic convulsions and death”. The LD50 [2] was 26.5 mg/kg.
Molecule `CCCOC(=O)NC1=NC(c2ccccc2)CCN1` (centres unmarked) [2-n-propoxycarbonylamino-4-phenyl-1,4,5,6-tetrahydropyrimidine] has an ED50 (tonic extensor seizure) of 30 mg/kg and a minimal effective dose [1] of 10 mg/kg.
`CCCOC(=O)NC1=NCC(c2cccc(Br)c2)CN1` (centres unmarked) [5|H|3-Br|H|CH3(CH)2OC(O)-, 2-n-propoxycarbonylamino-5-(3-bromophenyl)-1,4,5,6-tetrahydropyrimidine] gave a minimal effective dose [1] of 1 mg/kg.
`NC1=NCC(c2ccccc2)CN1` (centres unmarked) [5|H|H|H|H, 2-amino-5-phenyl-1,4,5,6-tetrahydropyrimidine] showed a minimal effective dose [1] of 0.01 mg/kg.
With `COC(=O)NC1=NC(c2cccc(OC)c2)CCN1` (centres unmarked) [4|H|3-CH3O|H|CH3OC(O)] the minimal effective dose [1] was 10 mg/kg.
`COC(=O)NC1=NC(c2ccc(F)cc2)CCN1` (centres unmarked) [4|H|4-F|H|CH3COC(O)-, 2-methoxycarbonylamino-4-(4-fluorophenyl)-1,4,5,6-tetrahydropyrimidine] showed a minimal effective dose [1] of 1 mg/kg.
Work on `COC(=O)NC1=NCC(c2ccc(C(C)C)cc2)CN1` (centres unmarked) [5|H|4-(CH3)2CH-|H|CH3OC(O), 2-methoxycarbonylamino-5-(4-isopropylphenyl)-1,4,5,6-tetrahydropyrimidine] yielded an ED50 (tonic extensor seizure) of 55 mg/kg.
With `COC(=O)NC1=NCC(c2ccccc2)CN1` (centres unmarked) [5|H|H|H|CH3OC(O)-, 2-methoxycarbonylamino-5-phenyl-1,4,5,6-tetrahydropyrimidine] the minimal effective dose [1] was 0.0006 mg/kg.
Molecule `CC(C)OC(=O)NC1=NCC(c2c(Cl)cccc2Cl)CN1` (centres unmarked) [5|2-Cl|6-Cl|H|(CH3)2CHOC(O)-, 2-i-propoxycarbonylamino-5-(2,6-dichlorophenyl)-1,4,5,6-tetrahydropyrimidine] has a minimal effective dose [1] of 1 mg/kg.
For `COC(=O)NC1=NCC(c2c(Cl)cccc2Cl)CN1` (centres unmarked) [5|2-Cl|6-Cl|H|CH3OC(O)-, 2-methoxycarbonylamino-5-(2,6-dichlorophenyl)-1,4,5,6-tetrahydropyrimidine], the minimal effective dose [1] was 0.15 mg/kg.
In the case of `COC(=O)NC1=NCC(c2ccccc2Cl)CN1` (centres unmarked) [5|H|2-Cl|H|CH3OC(O)-, 2-methoxycarbonylamino-5-(2-chlorophenyl)-1,4,5,6-tetrahydropyrimidine], the ED50 (tonic extensor seizure) was 42 mg/kg and the minimal effective dose [1] was 10 mg/kg.
In the case of `COC(=O)NC1=NCC(c2ccc(Cl)cc2Cl)CN1` (centres unmarked) [5|2-Cl|4-Cl|H|CH3OC(O)-, 2-methoxycarbonylamino-5-(2,4-dichlorophenyl)-1,4,5,6-tetrahydropyrimidine], the minimal effective dose [1] was 1 mg/kg and the ED50 (jaw opening reflex) was 25 mg/kg.
